Assay results taken from patent publication US11150234B2, “Method for evaluating taxic behavior in response to odor substance based on olfactory sense in nematodes, and dish and behavior evaluation system used in evaluation method” (priority 2016, dated 2021).

Experiments:
wild type C. elegans = assay: Taxic behavior evaluation through olfactory sense using 5 cm×2 cm rectangular dish, without nematicide; assay type: in vivo, Caenorhabditis elegans; conditions: for taxis index: 10 minutes after dissemination, 1 μL isoamyl alcohol diluted 1000-fold with water or 1 μL nonanone stock solution, average of 5 experiments
Procedure: First, a rectangular dish having a bottom surface of 5 cm×2 cm was fabricated as an example (see FIGS. 1A and B). Nematodes were disseminated into a region defined by two lines at the center of the rectangular dish in the longitudinal direction, and an attractant or a repellent was applied to the region at the left end. […] In this example, isoamyl alcohol was used as an attractant, and nonanone was used as a repellent. Specifically, isoamyl alcohol was diluted 1000-fold with water, and 1 μL thereof was applied to the region at the left end. Further, 1 μL of the stock solution of nonanone was applied to the region at the left end. As the nematodes, wild type C. elegans (10 to 50 nematodes/experiment) were used. […] Specifically, the difference in the number of nematodes between those moved to the region (region indicated by O-mark in FIG. 4, corresponding to region 1 of the first embodiment) located between the region at the left end to which an attractant or a repellent was applied and the region at the center in the longitudinal direction in which the nematodes were disseminated and those moved to the region on the opposite side (region indicated by X-mark in FIG. 4, corresponding to region 2 of the first embodiment) was determined, and the result was divided by the number of all nematodes to determine the taxis index. Taxis Index (Taxis index)={(the number of nematodes in region indicated by symbol “O”)−(the number of nematodes in region indicated by symbol “X”)}/the number of all nematodes The experiment was repeated 5 times, to determine the average of taxis indices and SEM. The taxic behavior was evaluated in the same manner as in Example 1 except that urine (1/20 dilution) of a cancer patient or urine (1/20 dilution) of a healthy individual was used as an attractant or a repellent. […] Urine obtained from a plurality of different cancer patients was used.

N2 Bristol strains = assay: Taxic behavior evaluation system of third embodiment (5 cm×2 cm×1 mm recess in solid medium covered with plate); assay type: in vivo, Caenorhabditis elegans; conditions: 23° C., IAA diluted 10^−5-fold
Procedure: The taxic behavior based on olfactory sense was evaluated using N2 Bristol strains that are nematode strains. […] After a reagent was mixed using the culture medium composition of the assay plate, followed by autoclaving, an appropriate amount of the reagent was poured into a 9 cm dish, and the solid medium was solidified by cooling while pressing a plastic plate of 5 cm×2 cm×1 mm against the surface. After the solid medium was solidified, the plastic plate was removed, to form a recess with a length of 5 cm, a width of 2 cm, and a depth of 1 mm on the surface of the solid medium. Then, isoamyl alcohol (IAA) diluted 10^-5-fold or nonanone (Nona) diluted 10^-3-fold was arranged at the position shown by the symbol “+” on the right side of FIG. 13, and nematodes cultured at 20° C. for 4 days were arranged at the center (which corresponded to region B in FIG. 13). Thereafter, the taxic behavior of nematodes at 23° C. was observed. The number of nematodes in the regions corresponding to regions A, B, and C in FIG. 13 were counted after a lapse of 0 minutes, 5 minutes, 10 minutes, and 20 minutes. The number of nematodes remaining was calculated as a ratio of the number of nematodes in response to the number of nematodes at 0 minutes at each time. Further, the taxis index was calculated based on the formula [[…])]. Here, N (A) is the number of nematodes that moved to region A, and N (B) is the number of nematodes that moved to region B.

[1] = at 5 minutes, nonanone diluted 10^−3-fold

Row | SMILES | taxis index (wild type C. elegans) | nematodes showing attraction behavior in response to the attractant (wild type C. elegans; 10 minutes, from taxis index) | taxic behavior observed (N2 Bristol strains; [1]) | taxic behavior observed (N2 Bristol strains; at 20 minutes) | nematodes showing avoidance behavior in response to the repellent (wild type C. elegans; 10 minutes, from taxis index)
1 | CC(C)CCO [isoamyl alcohol] | over 0.8 | ≥ 90% | migration behavior | migration behavior | 
2 | CCCCCCCC(C)=O [nonanone] | below −0.8 |  | avoidance behavior |  | ≥ 90%
